Source: patent US10517889B2, “Modulators of SMAD7 expression” (Ionis Pharmaceuticals, Inc., priority 2017, dated 2019)
Strand notation (5' to 3'): a small letter for the sugar, then the base; units joined by * are phosphorothioate-linked, units joined directly phosphodiester-linked; [ ] holds rarer units or linkages, { } end groups; capitals alone tell only the bases. k = constrained ethyl (cEt); [5mC] = 5-methylcytosine; d = 2'-deoxy (DNA)

Test system: human SMAD7 mRNA
Test: Antisense inhibition of human SMAD7 mRNA expression in Hep3B cells by 3-10-3 cEt gapmers, 10,000 nM, electroporation (Example 2)
Assay type: cell-based
Conditions: Hep3B cells, electroporation with 10,000 nM antisense oligonucleotide, approximately 24 hours, RTS5062, percent inhibition of SMAD7 mRNA relative to untreated control cells
How it was run: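 SMAD7 mRNA was measured by real-time PCR (RTS5062) with RiboGreen total-RNA normalization, about 24 h after 10,000 nM gapmer was delivered by electroporation into Hep3B cells at 20,000 per well. Gapmers were 16-mer 3-10-3 cEt, fully phosphorothioate; values are % inhibition versus untreated controls.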

Row | Substance | % Inhibition [%]
1 | 799761 (antisense kT*kG*kT*d[5mC]*dA*dT*dT*dA*dG*dA*dA*d[5mC]*dA*kA*kT*kG) [compound 799761] | 35
2 | 799762 (antisense kG*kT*k[5mC]*d[5mC]*dT*dA*dA*dA*dG*dA*d[5mC]*dG*dG*k[5mC]*kT*k[5mC]) [compound 799762] | 21
3 | 799763 (antisense kT*kG*kT*d[5mC]*d[5mC]*dT*dA*dA*dA*dG*dA*d[5mC]*dG*kG*k[5mC]*kT) [compound 799763] | 50
4 | 799764 (antisense kA*k[5mC]*kG*d[5mC]*dT*dA*dA*dG*dG*dA*dA*dA*dA*kA*kG*k[5mC]) [compound 799764] | 19
5 | 799765 (antisense kA*kA*kG*d[5mC]*dA*d[5mC]*dG*d[5mC]*dT*dA*dA*dG*dG*kA*kA*kA) [compound 799765] | 23
6 | 799766 (kA*kA*kA*d[5mC]*dA*dA*dA*dG*d[5mC]*dA*d[5mC]*dG*d[5mC]*kT*kA*kA; antisense) [compound 799766] | 35
7 | 799767 (kT*k[5mC]*kT*dG*dT*dT*dT*dG*dG*dA*d[5mC]*dA*dA*kG*kT*kT; antisense) [compound 799767] | 47
8 | 799768 (k[5mC]*kA*k[5mC]*d[5mC]*dA*dA*d[5mC]*d[5mC]*dT*d[5mC]*dT*dG*dT*kG*kG*kG; antisense) [compound 799768] | 0
9 | 799769 (k[5mC]*k[5mC]*kA*d[5mC]*d[5mC]*dA*dA*d[5mC]*d[5mC]*dT*d[5mC]*dT*dG*kT*kG*kG; antisense) [compound 799769] | 0
10 | 799770 (kG*kT*kT*dT*d[5mC]*d[5mC]*dA*dA*dG*dG*d[5mC]*d[5mC]*dG*kG*k[5mC]*kG; antisense) [compound 799770] | 50
11 | 799782 (k[5mC]*kA*kT*dA*dA*dT*dA*dG*dG*dT*dG*dT*d[5mC]*kA*kA*kT; antisense) [compound 799782] | 4
12 | 799783 (kG*k[5mC]*kA*d[5mC]*dA*dT*dA*dA*dT*dA*dG*dG*dT*kG*kT*k[5mC]; antisense) [compound 799783] | 24
13 | 799784 (k[5mC]*kA*kG*dG*dA*dA*d[5mC]*dT*dG*dG*dT*d[5mC]*d[5mC]*kT*k[5mC]*kT; antisense) [compound 799784] | 19
14 | 799785 (k[5mC]*kT*k[5mC]*d[5mC]*dA*dG*dG*dT*dA*dG*dA*dG*dG*k[5mC]*kA*kA; antisense) [compound 799785] | 0
15 | 799786 (kA*k[5mC]*kA*dG*dA*dA*dG*d[5mC]*dT*dG*d[5mC]*d[5mC]*d[5mC]*k[5mC]*kT*kG; antisense) [compound 799786] | 0
16 | 799788 (k[5mC]*kA*k[5mC]*dA*dA*d[5mC]*d[5mC]*dA*dA*dA*dG*d[5mC]*dA*kG*kA*kA; antisense) [compound 799788] | 59
17 | 799789 (kA*k[5mC]*kA*d[5mC]*dA*dA*d[5mC]*d[5mC]*dA*dA*dA*dG*d[5mC]*kA*kG*kA; antisense) [compound 799789] | 44
18 | 799790 (kG*kA*kG*dA*d[5mC]*d[5mC]*dT*dA*d[5mC]*d[5mC]*dT*d[5mC]*dT*kG*kT*kT; antisense) [compound 799790] | 33
19 | 799801 (kA*kA*kT*d[5mC]*dA*dA*dG*dT*d[5mC]*d[5mC]*dT*d[5mC]*dT*kG*kG*kA; antisense) [compound 799801] | 18
20 | 799802 (k[5mC]*k[5mC]*kA*dG*dA*d[5mC]*dA*dG*dG*d[5mC]*d[5mC]*dA*dG*kG*kG*k[5mC]; antisense) [compound 799802] | 20
21 | 799803 (kA*kG*kA*dA*dG*dG*dA*dT*dG*dA*dA*dT*dG*kT*kG*kA; antisense) [compound 799803] | 10
22 | 799804 (kA*k[5mC]*kA*dG*dA*d[5mC]*dA*dG*dA*dG*dA*dA*dG*kG*kA*kT; antisense) [compound 799804] | 38
23 | 799805 (k[5mC]*kG*kA*dG*dA*dA*dG*dA*dG*dT*dA*dA*dT*kT*k[5mC]*kA; antisense) [compound 799805] | 1
24 | 799806 (antisense kG*kA*kG*dG*dA*dG*d[5mC]*dG*dA*dG*dA*dA*dG*kA*kG*kT) [compound 799806] | 6
25 | 799807 (antisense kA*kA*kA*dT*dT*dG*dG*dA*dA*dT*dT*dG*dA*kG*kA*k[5mC]) [compound 799807] | 37
26 | 799809 (antisense k[5mC]*kA*kA*dT*dA*d[5mC]*dT*dG*dA*dA*dA*dT*dG*kA*kG*k[5mC]) [compound 799809] | 43
27 | 799810 (antisense k[5mC]*kT*kT*dA*dT*dT*dG*dT*dT*dT*dT*dT*dG*kT*kT*k[5mC]) [compound 799810] | 14

Same assay, conditions: Hep3B cells, electroporation, 10,000 nM antisense oligonucleotide, approximately 24 hours, RTS5062, relative to untreated control cells

Row | Substance | % inhibition of SMAD7 mRNA expression [%]
28 | 799758 (antisense k[5mC]*kA*k[5mC]*d[5mC]*dG*dT*dT*dA*d[5mC]*dT*dG*dG*dA*k[5mC]*kA*k[5mC]) [compound 799758] | 57
29 | 799760 (antisense kT*kT*k[5mC]*dT*dA*dG*dG*dT*dG*dA*dA*d[5mC]*d[5mC]*kA*kT*kA) [compound 799760] | 58
30 | 799771 (kG*k[5mC]*kA*dT*dA*dT*dG*d[5mC]*d[5mC]*dA*d[5mC]*dT*dG*kA*kG*kA; antisense) [compound 799771] | 0
31 | 799772 (k[5mC]*kG*k[5mC]*d[5mC]*dG*d[5mC]*dG*dG*d[5mC]*dA*dT*dA*dT*kG*k[5mC]*k[5mC]; antisense) [compound 799772] | 30
32 | 799773 (k[5mC]*kG*k[5mC]*dT*dA*dG*dG*dT*d[5mC]*dA*d[5mC]*dA*d[5mC]*kT*k[5mC]*kA; antisense) [compound 799773] | 43
33 | 799774 (kG*k[5mC]*k[5mC]*d[5mC]*dT*dG*dT*dT*d[5mC]*dT*dG*d[5mC]*dG*k[5mC]*kT*kA; antisense) [compound 799774] | 0
34 | 799775 (kA*k[5mC]*kA*d[5mC]*dA*dA*dG*dA*dG*dG*dG*dA*dA*kG*k[5mC]*k[5mC]; antisense) [compound 799775] | 22
35 | 799776 (k[5mC]*kA*kG*dA*dA*dG*dG*dA*d[5mC]*d[5mC]*dA*dA*dG*kT*k[5mC]*k[5mC]; antisense) [compound 799776] | 11
36 | 799777 (kA*kG*kT*d[5mC]*dA*dG*d[5mC]*d[5mC]*dA*dG*dA*dA*dG*kG*kA*k[5mC]; antisense) [compound 799777] | 34
37 | 799778 (kG*k[5mC]*kA*d[5mC]*dA*d[5mC]*d[5mC]*dT*dT*d[5mC]*d[5mC]*dA*dA*kG*k[5mC]*kA; antisense) [compound 799778] | 10
38 | 799779 (kT*kA*kA*dA*d[5mC]*dA*dA*dA*d[5mC]*d[5mC]*dA*d[5mC]*dA*kG*kG*kG; antisense) [compound 799779] | 19
39 | 799780 (k[5mC]*k[5mC]*kA*dT*dA*dA*dA*d[5mC]*dA*dA*dA*d[5mC]*d[5mC]*kA*k[5mC]*kA; antisense) [compound 799780] | 28
40 | 799792 (kA*k[5mC]*k[5mC]*dA*dA*dA*dA*d[5mC]*d[5mC]*d[5mC]*dG*dG*dG*kA*kG*kA; antisense) [compound 799792] | 31
41 | 799793 (kG*kT*kT*d[5mC]*dT*dT*d[5mC]*d[5mC]*dT*dG*d[5mC]*dT*dG*kT*k[5mC]*kA; antisense) [compound 799793] | 30
42 | 799794 (kA*kA*k[5mC]*d[5mC]*dA*d[5mC]*dA*dG*d[5mC]*dT*d[5mC]*d[5mC]*dT*kG*kT*kT; antisense) [compound 799794] | 0
43 | 799795 (k[5mC]*k[5mC]*kA*dG*dA*dT*dG*dT*dT*dT*d[5mC]*d[5mC]*d[5mC]*k[5mC]*kA*k[5mC]; antisense) [compound 799795] | 66
44 | 799796 (k[5mC]*kA*kT*dT*dA*dG*dA*dT*dA*d[5mC]*dT*dG*dT*k[5mC]*kT*kT; antisense) [compound 799796] | 43
45 | 799797 (kG*kA*k[5mC]*dA*dT*dT*dA*dG*dA*dT*dA*d[5mC]*dT*kG*kT*k[5mC]; antisense) [compound 799797] | 27
46 | 799798 (kT*k[5mC]*k[5mC]*d[5mC]*dA*d[5mC]*dT*dT*d[5mC]*dT*d[5mC]*d[5mC]*dT*k[5mC]*kT*kG; antisense) [compound 799798] | 50
47 | 799799 (kA*kA*kA*dA*d[5mC]*dA*dT*d[5mC]*d[5mC]*d[5mC]*dA*d[5mC]*dT*kT*k[5mC]*kT; antisense) [compound 799799] | 28
48 | 799800 (kT*kT*kA*d[5mC]*dA*dA*dA*dG*dG*dG*dA*dA*dA*kG*kT*k[5mC]; antisense) [compound 799800] | 28
49 | 799811 (antisense k[5mC]*kT*kG*d[5mC]*d[5mC]*dA*dA*d[5mC]*dG*dG*d[5mC]*dA*d[5mC]*kA*kG*kT) [compound 799811] | 0
